Measured values published in patent EP0244728B1, “Use of heteroarylethyl amines to stimulate animal growth, heteroarylethyl amines and process for their preparation” (BAYER AG, priority 1986, dated 1987).

Assay: Rat feeding trial (Ratten-Fütterungsversuch), Beispiel A
Format: in vivo
Details: Dosis 100 ppm in feed ad lib; female SPF Wistar rats, 90-110 g; 13-day trial; control without active substance = 100
From the text: Weibliche Laborratten 90-110 g schwer vom Typ SPF Wistar (Züchtung Hagemann) werden ad lib mit Standard Rattenfutter, das mit der gewünschten Menge Wirkstoff versetzt ist, gefüttert. Jeder Versuchsansatz wird mit Futter der identischen Charge durchgeführt, so daß Unterschiede in der Zusammensetzung des Futters die Vergleichbarkeit der Ergebnisse nicht beeinträchtigen können.
Die Ratten erhalten Wasser ad lib.
Jeweils 12 Ratten bilden eine Versuchsgruppe und werden mit Futter, das mit der gewünschten Menge Wirkstoff versetzt ist gefüttert. Eine Kontrollgruppe erhält Futter ohne Wirkstoff. Das durchschnittliche Körpergewicht sowie die Streuung in den Körpergewichten der Ratten ist in jeder Versuchsgruppe gleich, so daß eine Vergleichbarkeit der Versuchsgruppen untereinander gewährleistet ist.
Während des 13-tägigen Versuchs werden Gewichtszunahme und Futterverbrauch bestimmt.

SMILES	Gewichtszunahme
CC(C)(C)NCC(O)c1ccc(N)c(Cl)n1 (stereo not shown) [compound 6]	110
CC(C)(C)NCC(O)c1cnc(N)c(Cl)c1 (stereo not shown) [compound 3]	115
CC(C)NCC(O)c1ccc(N)cn1 (stereo not shown) [compound 7]	120
CC(C)(C)NCC(O)c1cc(Cl)nc(Cl)c1 (stereo not shown) [compound 1]	110
